This passage reports IC50 results from US9051290B2, “Biaryl phosphodiesterase inhibitors” (LEO PHARMA A/S, priority 2010, dated 2015).

This assay has as its target Human recombinant PDE4 (Genbank accession no NM—006203) (Homo sapiens, UniProt Q08499). The assay is described as follows: PDE4 assay (SPA, cleavage of cAMP). In kind it is biochemical. The note with it: 1 hour incubation, test compound up to 10 μM, cAMP 1×10^−5M, read-out: PDE4 IC50 range. The protocol:
Human recombinant PDE4 (Genbank accession no NM_006203) was incubated for 1 hour with the test compound at concentrations up to 10 μM, with cAMP (1×10^−5M), and with a low amount (0.021 MBq) of radioactively labelled cAMP. At the end of the incubation, the cleavage of the substrate was evaluated by the binding of the AMP product to SPA beads, which generate chemoluminescence when bound to the radioactive tracer. The AMP product inhibited the binding of the radioactive tracer to the beads, and the luminescent signal was competed.
The results were calculated as the molar concentrations resulting in 50% inhibition of the substrate cleavage compared to controls samples, and are expressed as a range of IC50 (M).
The compounds of the present invention were tested in the PDE4 assay.

pIC50: −log10 of the molar value.

Human recombinant PDE4 (Genbank accession no NM—006203), sequence (Q08499 1-673 isoform Q08499-2): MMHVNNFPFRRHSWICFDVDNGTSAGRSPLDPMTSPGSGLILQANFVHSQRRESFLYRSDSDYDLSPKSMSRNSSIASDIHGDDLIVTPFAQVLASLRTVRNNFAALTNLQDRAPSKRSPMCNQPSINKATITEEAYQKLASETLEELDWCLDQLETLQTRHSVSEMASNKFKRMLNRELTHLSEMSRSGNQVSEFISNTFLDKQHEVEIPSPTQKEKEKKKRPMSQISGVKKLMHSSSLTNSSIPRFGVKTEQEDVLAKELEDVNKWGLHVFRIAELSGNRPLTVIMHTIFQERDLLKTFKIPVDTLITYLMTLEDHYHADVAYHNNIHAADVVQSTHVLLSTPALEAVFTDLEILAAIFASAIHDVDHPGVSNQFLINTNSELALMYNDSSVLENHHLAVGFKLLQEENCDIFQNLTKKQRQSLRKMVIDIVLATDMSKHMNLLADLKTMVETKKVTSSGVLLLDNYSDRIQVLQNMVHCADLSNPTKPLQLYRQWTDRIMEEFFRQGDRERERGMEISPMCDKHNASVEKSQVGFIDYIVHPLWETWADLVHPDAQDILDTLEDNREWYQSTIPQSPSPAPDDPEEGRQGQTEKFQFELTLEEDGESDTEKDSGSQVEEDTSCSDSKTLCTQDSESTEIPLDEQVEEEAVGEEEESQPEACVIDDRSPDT

For orientation: pIC50 means the negative decadic logarithm of the IC50, by convention in mol/L. `COc1ccc(-c2ccc3c(c2)COC3=O)c(OCCC(C)C)c1OC` [Compound 131, 5-[3,4-Dimethoxy-2-(3-methyl-butoxy)-phenyl]-3H-isobenzofuran-1-one]: the pIC50 is greater than 7.00.

For the compound `COc1ccc(-c2ccc3c(c2)COC3=O)c(OCC(C)(C)C)c1OC` [Compound 132, 5-[2-(2,2-Dimethyl-propoxy)-3,4-dimethoxy-phenyl]-3H-isobenzofuran-1-one], the negative-log IC50 (pIC50) was greater than 7.00.

As for `COc1ccc(-c2ccc3c(c2)COC3=O)c(OCC2CCC2)c1OC` [Compound 133, 5-(2-Cyclobutylmethoxy-3,4-dimethoxy-phenyl)-3H-isobenzofuran-1-one], the pIC50 was greater than 7.00.

Turning to `COc1ccc(-c2ccc3c(c2)COC3=O)c(OCC2(CO)COC2)c1OC` [Compound 134, 5-[2-(3-Hydroxymethyl-oxetan-3-ylmethoxy)-3,4-dimethoxy-phenyl]-3H-isobenzofuran-1-one], the pIC50 was greater than 7.00.

`COc1ccc(-c2ccc3c(c2)COC3=O)c(OCCC(C)(C)C)c1OC` [Compound 135, 5-[2-(3,3-Dimethyl-butoxy)-3,4-dimethoxy-phenyl]-3H-isobenzofuran-1-one]: the pIC50 was greater than 7.00.

Regarding `COc1ccc(-c2ccc3c(c2)COC3=O)c(OCc2ccc(C(N)=O)cc2)c1OC` [Compound 136, 4-[2,3-Dimethoxy-6-(1-oxo-1,3-dihydro-isobenzofuran-5-yl)-phenoxymethyl]-benzamide], the negative-log IC50 (pIC50) was greater than 7.00.

In the case of `COc1ccc(-c2ccc3c(c2)COC3=O)c(OCC(C)(C)CO)c1OC` [Compound 137, 5-[2(3-Hydroxy-2,2-dimethyl-propoxy)-3,4-dimethoxy-phenyl]-3H-isobenzofuran-1-one], the pIC50 is greater than 7.00.

With `CNC(=O)c1ccc(COc2c(-c3ccc4c(c3)COC4=O)ccc(OC)c2OC)cc1` [Compound 138, 4-[2,3-Dimethoxy-6-(1-oxo-1,3-dihydro-isobenzofuran-5-yl)-phenoxymethyl]-N-methyl-benzamide], the pIC50 is greater than 7.00.

For `COc1ccc(-c2ccc3c(c2)COC3=O)c(OCc2ccc(C(=O)N(C)C)cc2)c1OC` [Compound 139, 4-[2,3-Dimethoxy-6-(1-oxo-1,3-dihydro-isobenzofuran-5-yl)-phenoxymethyl]-N,N-dimethyl-benzamide], the pIC50 was greater than 7.00.

In the case of `COc1ccc(-c2ccc3c(c2)COC3=O)c(OCc2cccc(C(=O)N(C)C)c2)c1OC` [Compound 140, 3-[2,3-Dimethoxy-6-(1-oxo-1,3-dihydro-isobenzofuran-5-yl)-phenoxymethyl]-N,N-dimethyl-benzamide], the pIC50 is greater than 7.00.

For the compound `COc1ccc(-c2ccc3c(c2)COC3=O)c(OCc2ccc(S(N)(=O)=O)cc2)c1OC` [Compound 141, 4-[2,3-Dimethoxy-6-(1-oxo-1,3-dihydro-isobenzofuran-5-yl)-phenoxymethyl]-benzenesulfonamide], the pIC50 is greater than 7.00.

On to `COc1ccc(-c2ccc3c(c2)COC3=O)c(OCc2ccc(S(C)(=O)=O)cc2)c1OC` [Compound 142, 5-[2-(4-Methanesulfonyl-benzyloxy)-3,4-dimethoxy-phenyl]-3H-isobenzofuran-1-one], for which the pIC50 is greater than 7.00.

Turning to `COc1ccc(-c2ccc3c(c2)COC3=O)c(OCc2cccc(S(C)(=O)=O)c2)c1OC` [Compound 143, 5-[2-(3-Methanesulfonyl-benzyloxy)-3,4-dimethoxy-phenyl]-3H-isobenzofuran-1-one], the pIC50 was greater than 7.00.

Take `COc1ccc(-c2ccc3c(c2)COC3=O)c(OCc2cccc(S(N)(=O)=O)c2)c1OC` [Compound 144, 3-[2,3-Dimethoxy-6-(1-oxo-1,3-dihydro-isobenzofuran-5-yl)-phenoxymethyl]-benzenesulfonamide]: the pIC50 is greater than 7.00.

In the case of `COc1ccc(-c2ccc3c(c2)COC3=O)c(OCc2cccc(S(=O)(=O)N(C)C)c2)c1OC` [Compound 145, 3-[2,3-Dimethoxy-6-(1-oxo-1,3-dihydro-isobenzofuran-5-yl)-phenoxymethyl]-N,N-dimethyl-benzenesulfonamide], the pIC50 was greater than 7.00.

Take `COc1ccc(-c2ccc3c(c2)COC3=O)c(OCc2cccc(C(N)=O)c2)c1OC` [Compound 146, 3-[2,3-Dimethoxy-6-(1-oxo-1,3-dihydro-isobenzofuran-5-yl)-phenoxymethyl]-benzamide]: the pIC50 is greater than 7.00.

Consider `COc1ccc(-c2ccc3c(c2)CNC3=O)c(OCCC(C)C)c1OC` [Compound 147, 5-[3,4-Dimethoxy-2-(3-methyl-butoxy)-phenyl]-2,3-dihydro-isoindol-1-one], for which the pIC50 was greater than 7.00.

As for `COc1ccc(-c2ccc3c(c2)CNC3=O)c(OCC(C)(C)C)c1OC` [Compound 148, 5-[2-(2,2-Dimethyl-propoxy)-3,4-dimethoxy-phenyl]-2,3-dihydro-isoindol-1-one], the pIC50 was greater than 7.00.

Consider `COc1ccc(-c2ccc3c(c2)CNC3=O)c(OCC2CCC2)c1OC` [Compound 149, 5-(2-Cyclobutylmethoxy-3,4-dimethoxy-phenyl)-2,3-dihydro-isoindol-1-one], for which the pIC50 was greater than 7.00.

In the case of `COc1ccc(-c2ccc3c(c2)CNC3=O)c(OCc2ccc(S(C)(=O)=O)cc2)c1OC` [Compound 150, 5-[2-(4-Methanesulfonyl-benzyloxy)-3,4-dimethoxy-phenyl]-2,3-dihydro-isoindol-1-one], the pIC50 is greater than 7.00.

As for `COc1ccc(-c2ccc3c(c2)CNC3=O)c(OCC2(CO)COC2)c1OC` [Compound 151, 5-[2-(3-Hydroxymethyl-oxetan-3-ylmethoxy)-3,4-dimethoxy-phenyl]-2,3-dihydro-isoindol-1-one], the pIC50 was 6.30 to 7.00.

For the compound `COc1ccc(-c2ccc3c(c2)CNC3=O)c(OCCC(C)(C)C)c1OC` [Compound 152, 5-[2-(3,3-Dimethyl-butoxy)-3,4-dimethoxy-phenyl]-2,3-dihydro-isoindol-1-one], the pIC50 is greater than 7.00.

For `COc1ccc(-c2ccc3c(c2)CNC3=O)c(OCc2ccc(C(N)=O)cc2)c1OC` [Compound 153, 4-[2,3-Dimethoxy-6-(1-oxo-2,3-dihydro-1H-isoindol-5-yl)-phenoxymethyl]-benzamide], the pIC50 is greater than 7.00.

Regarding `COc1ccc(-c2ccc3c(c2)CNC3=O)c(OCC(C)(C)CO)c1OC` [Compound 154, 5-[2-(3-Hydroxy-2,2-dimethyl-propoxy)-3,4-dimethoxy-phenyl]-2,3-dihydro-isoindol-1-one], the pIC50 was greater than 7.00.

As to `CNC(=O)c1ccc(COc2c(-c3ccc4c(c3)CNC4=O)ccc(OC)c2OC)cc1` [Compound 155, 4-[2,3-Dimethoxy-6-(1-oxo-2,3-dihydro-1H-isoindol-5-yl)-phenoxymethyl]-N-methyl-benzamide], the pIC50 is greater than 7.00.

For the compound `COc1ccc(-c2ccc3c(c2)CNC3=O)c(OCc2ccc(C(=O)N(C)C)cc2)c1OC` [Compound 156, 4-[2,3-Dimethoxy-6-(1-oxo-2,3-dihydro-1H-isoindol-5-yl)-phenoxymethyl]-N,N-dimethyl-benzamide], the negative-log IC50 (pIC50) was greater than 7.00.

Turning to `COc1ccc(-c2ccc3c(c2)CNC3=O)c(OCc2cccc(C(=O)N(C)C)c2)c1OC` [Compound 157, 3-[2,3-Dimethoxy-6-(1-oxo-2,3-dihydro-1H-isoindol-5-yl)-phenoxymethyl]-N,N-dimethyl-benzamide], the pIC50 is greater than 7.00.

On to `COc1ccc(-c2ccc3c(c2)CNC3=O)c(OCc2cccc(S(N)(=O)=O)c2)c1OC` [Compound 158, 3-[2,3-Dimethoxy-6-(1-oxo-2,3-dihydro-1H-isoindol-5-yl)-phenoxymethyl]-benzenesulfonamide], for which the pIC50 was greater than 7.00.

In the case of `COc1ccc(-c2ccc3c(c2)CNC3=O)c(OCc2cccc(C(N)=O)c2)c1OC` [Compound 159, 3-[2,3-Dimethoxy-6-(1-oxo-2,3-dihydro-1H-isoindol-5-yl)-phenoxymethyl]-benzamide], the pIC50 is 6.30 to 7.00.

Consider `COc1ccc(-c2ccc3c(c2)CNC3=O)c(OCc2cccc(S(C)(=O)=O)c2)c1OC` [Compound 160, 5-[2-(3-Methanesulfonyl-benzyloxy)-3,4-dimethoxy-phenyl]-2,3-dihydro-isoindol-1-one], for which the negative-log IC50 (pIC50) is greater than 7.00.

For `COc1ccc(-c2ccc3c(c2)CNC3=O)c(OCc2ccc(S(N)(=O)=O)cc2)c1OC` [Compound 161, 4-[2,3-Dimethoxy-6-(1-oxo-2,3-dihydro-1H-isoindol-5-yl)-phenoxymethyl]-benzenesulfonamide], the pIC50 was greater than 7.00.

With `COC(=O)C(C)(C)COc1c(-c2cccc3c2CCC3=O)ccc(OC)c1OC` [Compound 162, 3-[2,3-Dimethoxy-6-(1-oxo-indan-4-yl)-phenoxy]-2,2-dimethyl-propionic acid methyl ester], the pIC50 is greater than 7.00.

Take `COc1ccc(-c2cccc3c2CCC3=O)c(OCC2(C)COC2)c1OC` [Compound 163, 4-[3,4-Dimethoxy-2-(3-methyl-oxetan-3-ylmethoxy)-phenyl]-indan-1-one]: the pIC50 was greater than 7.00.

Consider `COc1ccc(-c2cccc3c2COC3=O)c(OCC2(C)COC2)c1OC` [Compound 164, 4-[3,4-Dimethoxy-2-(3-methyl-oxetan-3-ylmethoxy)-phenyl]-3H-isobenzofuran-1-one], for which the negative logarithm of the IC50 (pIC50) is 6.30 to 7.00.

Regarding `COC(=O)C(C)(C)COc1c(-c2ccc3c(c2)CCC3=O)ccc(OC)c1OC` [Compound 165, 3-[2,3-Dimethoxy-6-(1-oxo-indan-5-yl)-phenoxy]-2,2-dimethyl-propionic acid methyl ester], the pIC50 was greater than 7.00.

Turning to `COc1ccc(-c2cccc3c2CCC3=O)c(OCC(C)C)c1OC` [Compound 166, 4-(2-Isobutoxy-3,4-dimethoxy-phenyl)-indan-1-one], the pIC50 is greater than 7.00.

For the compound `COc1ccc(-c2cc(OC)c(OC)c3c2CCC3=O)c(OCC(C)C)c1OC` [Compound 167, 4-(2-Isobutoxy-3,4-dimethoxy-phenyl)-6,7-dimethoxy-indan-1-one], the pIC50 was 6.30 to 7.00.
